From patent US20060211606A1, “Peptides” (priority 2005, published 2006)
Where no end group is shown, it is not given here. [ ]: non-standard residue; d: D form. The star is where a group is joined. Hexanoyl = CCCCCC(=O)*; PEG = not defined here; Ahx = NCCCCCC(=O)O

What was measured:
[1] = tested on: C2C12 muscle cells; assay: C2C12 proliferation, BrdU incorporation; assay type: cell-based, mouse; details: 500 cells per well; 0.1, 1, 10 and 100 ng/ml; stimulation 24 hours, BrdU 5 hours
Description: (B) Peptides A2, A4, A6 and A8: C2C12 muscle cells at a 500 cells/well. Cultivation was carried out for 24 hours in 10% FBS, followed by starvation for 24 hours in 0.1% BSA, stimulation for 24 hours and then treatment with BrdU for 5 hours. Concentrations of 0.1, 1, 10 and 100 ng/ml of peptides A2, A4, A6 and A8 were tested, along with 0.1, 1, 10 and 100 ng/ml IGF-I (See the right-hand set of results). BrdU incorporation was measured to assess the level of cell proliferation achieved. Controls containing no cells, medium only, 5% FBS and no BrdU were also provided. Values on the Y-axis are for fluorescence (absorbence at 370 nm; mean plus standard error across 4 wells). The first column on the left relates to a control in which no cells were present. The next four relate to peptide A2 at concentrations of 0.1, 1, 10 and 100 ng/ml. The next four relate to peptide A4 at concentrations of 0.1, 1, 10 and 100 ng/ml. The central three relate to controls containing medium only (med), 5% FBS) and no BrdU. The next four relate to peptide A6 at concentrations of 0.1, 1, 10 and 100 ng/ml. The next four relate to peptide A8 at concentrations of 0.1, 1, 10 and 100 ng/ml. The right-hand group of results relate to IGF-I (See Example 1.5) at concentrations of 0.1, 1, 10 and 100 ng/ml.
The 8 amino acid peptides described in 1.3.2 above and referred to in FIG. 8B as A2, A4, A6 and A8 were tested for the ability to induce proliferation of C2C12 muscle cells at a density of 500 cells per well. Cultivation was carried out for 24 hours in 10% FBS, followed by starvation for 24 hours in 0.1% BSA, stimulation for 24 hours and then treatment with BrdU for 5 hours. Concentrations of 0.1, 1, 10 and 100 ng/ml of peptides A2, A4, A6 and A8 were tested, along with 0.1, 1, 10 and 100 ng/ml IGF-I (See the right-hand set of results in FIG. 8B). Incorporation of BrdU was measured to assess the level of cell proliferation achieved. Controls containing no cells, medium only, 5% FBS and no BrdU were also provided.

[2] = tested on: C2C12 muscle cells; assay: C2C12 proliferation, Alamar Blue assay; assay type: cell-based, mouse; details: 2000 cells per well; 2, 5, 50 and 100 ng/ml; medium with IGF-I 2 ng per ml; 36 hours
Description: (A) DMGF and CMGF Peptides: C2C12 Cells were provided at 2000 cell/well, in a medium containing DMEM (1000 mg/L glucose), plus BSA(100 ug/ml), plus IGF-I (2 ng per ml) and incubated for 36 hours. Cell proliferation was then assessed using an Alamar Blue assay. […] Y-axis values are fluorescence (wavelength of excitation 535 nm, measurement at 590 nm; mean plus standard error) in an Alamar Blue assay.
The 8 amino acid peptides described in 1.3.1 above and referred to in FIG. 8A as DMGF and CMGF were tested for the ability to induce proliferation of C2C12 muscle cells at a density of 2000 cells per well in a medium containing DMEM (1000 mg/L glucose), BSA (10 ug/ml) and IGF-I (2 ng per ml). Concentrations of 2, 5, 50 and 100 ng/ml of DMGF and CMGF were tested (See the left-hand and middle sets of results in FIG. 8), along with 2, 5, 50 and 100 ng/ml IGF-I alone (See the right-hand set of results in FIG. 8). After 36 hours incubation, an Alamar Blue assay was used to assess the level of cell proliferation achieved. A control containing only the medium was also provided.

[3] = tested on: mononucleated myoblasts (satellite cells); assay: Myoblast replication, cell number by Alamar Blue method (0 to 3 scale); assay type: cell-based
Description: FIG. 2: Effect of Alanine substitution and C-terminal and N-terminal truncation on stability and biological activity—further sequence alignment, comparing modified sequences of Peptides 1-6 (SEQ ID NOS: 15-20) and Short peptides 1-4 (SEQ NOS: 21-24), and detailing impact of changes on stability as measured by incubation in human plasma and biological activity as measured by testing on muscle cell line (see Examples for details of test procedures).
In this regard, one method of assessing biological activity is the Alamar Blue method as discussed in Example 5.2.2. This involves contacting a polypeptide with mononucleated myoblast cells and assessing the extent to which it causes them to proliferate. This can be scored in any suitable way, e.g. on a scale of 0 to 3 as discussed in the Examples. Activity may also be measured via cyclins, such as cyclin ID, which are early markers of cell division. Activity may also be measured via the use of bromodeoxy uridine (BrdU).
Biological activity was determined using an in vitro system by measuring the ability of the C terminal peptides to induce mononucleated myoblasts (satellite cells) to replicate. Cell number was determined using the Alamar Blue method.

[4] = Stability to proteolytic cleavage in fresh human plasma, Western blotting
Description: Western blotting was then used to assess the survival of each peptide over those time intervals: A=0 minutes; B=30 minutes; C=2 hours; D=24 hours.
Stability may be assessed in terms of half-life in human plasma or by any other suitable technique. In particular, stability can be measured by assessing peptides' susceptibility to proteolytic cleavage in fresh human plasma according to the technique of Example 5.1 below, in which the plasma was stored until used at −70° C., 10 μg of peptide was added to 2 ml of plasma, plus 7 ml of PBS and the mixture was incubated at 37° C. for different time intervals. Western blotting was then used to detect each peptide over those time intervals.
The plasma was stored until used at −70° C. 10 μg of peptide were added to 2 ml of plasma, plus 7 ml of PBS. This mixture was incubated at 37° C. for different time intervals.
Like biological activity, stability was scored on a scale of 0 to 3.
Stability was determined as the amount of the peptide that remained intact and bound to the specific antibody in the following way:

A2: Gly-Ser-Thr-Phe-Glu-Glu-Arg-Lys (SEQ ID NO:34), amidated at the C-terminus, unmodified at the N-terminus (H-GSTFEERK-NH2) [Peptide A2]
proliferation of C2C12 cells (BrdU incorporation) [1]: induced cell proliferation

A4: Gly-Ser-Thr-Phe-Glu-Glu-Arg-Lys (SEQ ID NO:34), amidated at the C-terminus, hexanoic acid moiety at the N-terminus (Hexanoyl-GSTFEERK-NH2; SMILES CCCCCC(=O)NCC(=O)N[C@@H](CO)C(=O)N[C@H](C(=O)N[C@@H](Cc1ccccc1)C(=O)N[C@@H](CCC(=O)O)C(=O)N[C@@H](CCC(=O)O)C(=O)N[C@@H](CCCNC(=N)N)C(=O)N[C@@H](CCCCN)C(N)=O)[C@@H](C)O) [Peptide A4]
proliferation of C2C12 cells (BrdU incorporation) [1]: induced cell proliferation

A6: Gly-Ser-Thr-Phe-Glu-Glu-Arg-Lys (SEQ ID NO:34), amidated at the C-terminus, amino-hexanoic acid moiety at the N-terminus ([Ahx]GSTFEERK-NH2; N-terminus assumed; SMILES C[C@@H](O)[C@H](NC(=O)[C@H](CO)NC(=O)CNC(=O)CCCCCN)C(=O)N[C@@H](Cc1ccccc1)C(=O)N[C@@H](CCC(=O)O)C(=O)N[C@@H](CCC(=O)O)C(=O)N[C@@H](CCCNC(=N)N)C(=O)N[C@@H](CCCCN)C(N)=O) [Peptide A6]
proliferation of C2C12 cells (BrdU incorporation) [1]: induced cell proliferation

A8: Gly-Ser-Thr-Phe-Glu-Glu-His-Lys (SEQ ID NO:33), amidated at the C-terminus, hexanoic acid at the N-terminus (Hexanoyl-GSTFEEHK-NH2; SMILES CCCCCC(=O)NCC(=O)N[C@@H](CO)C(=O)N[C@H](C(=O)N[C@@H](Cc1ccccc1)C(=O)N[C@@H](CCC(=O)O)C(=O)N[C@@H](CCC(=O)O)C(=O)N[C@@H](Cc1c[nH]cn1)C(=O)N[C@@H](CCCCN)C(N)=O)[C@@H](C)O) [Peptide A8]
proliferation of C2C12 cells (BrdU incorporation) [1]: induced cell proliferation

CMGF: Gly-Ser-Thr-Phe-Glu-Glu-His-Lys (SEQ ID NO:33), N-terminal hexanoic acid, amidated at the C-terminal end (Hexanoyl-GSTFEEHK-NH2; SMILES CCCCCC(=O)NCC(=O)N[C@@H](CO)C(=O)N[C@H](C(=O)N[C@@H](Cc1ccccc1)C(=O)N[C@@H](CCC(=O)O)C(=O)N[C@@H](CCC(=O)O)C(=O)N[C@@H](Cc1c[nH]cn1)C(=O)N[C@@H](CCCCN)C(N)=O)[C@@H](C)O)
proliferation of C2C12 cells (Alamar Blue fluorescence) [2]: induced cell proliferation

DMGF: Gly-Ser-Thr-Phe-Glu-Glu-His-Lys (SEQ ID NO:33), N-terminal PEGylation, amidated at the C-terminal end ({PEG}-GSTFEEHK-NH2; reading uncertain; also: printed as Gly-Ser-Thr-Phe-Glu-Glu-His-Lys)
proliferation of C2C12 cells (Alamar Blue fluorescence) [2]: induced cell proliferation

Short peptide 2: SEQ ID NO: 15 with Arg14→Ala and the four C-terminal amino acids removed (YQPPSTNKNTKSQARKGSTF)
biological activity score (scale of 0 to 3) [3]: zero

Short peptide 3: SEQ ID NO: 15 with Arg14→Ala and the three N-terminal amino acids removed (PSTNKNTKSQARKGSTFEEHK)
biological activity score (scale of 0 to 3) [3]: zero

Short peptide 4: SEQ ID NO: 15 with Arg14→Ala and the five N-terminal amino acids removed (TNKNTKSQARKGSTFEEHK)
biological activity score (scale of 0 to 3) [3]: zero

YQPPSTNKNTKAQRRKGSTFEEHK [Peptide 3]
biological activity score (scale of 0 to 3) [3]: 3 (significant increase in cell number at 1 h.)

YQPPSTNKNTKSQAAKGSTFEEHK [Peptide 6]
biological activity score (scale of 0 to 3) [3]: zero

YQPPSTNKNTKSQRRKGSTFEEHK [Peptide 1]
biological activity (in words) [3]: little or no activity
stability score (scale of 0 to 3) ([4]; fresh human plasma, Western blotting, intact peptide bound to specific antibody): 1 (marked loss of detectable antibody binding by ½ hours.)

YQPPSTNKNTKSQRRKGSTFEERK [native human MGF C terminal Ec peptide, reference compound]
half-life in human plasma ([4]; human plasma): short half-life
